In US20190022152A1, “MICROBIOME RESPONSE TO AGENTS” (Yeda Research and Development Co., Ltd., priority 2014, published 2019):

Tested on: germ-free Swiss-Webster mice
Test: Fecal or culture transplantation into germ-free mice followed by OGTT
Type: in vivo
Description: C57Bl/6 WT adult male mice were randomly assigned (without blinding) to treatment groups and were given commercial artificial sweeteners (saccharin-, sucralose- or aspartame-based) or pure saccharin (Sigma Aldrich) in drinking water and fed a high-fat (HFD D12492, 60% Kcal from fat, Research Diets) or standard polysaccharide normal chow (NC) diet (Harlan-Teklad). Compared groups were always fed from the same batch of diet. For antibiotic treatment, mice were given a combination of ciprofloxacin (0.2 gl^−1) and metronidazole ([…]) or vancomycin (0.5 gl^−1) in their drinking water. All antibiotics were obtained from Sigma Aldrich. Adult male outbred Swiss-Webster mice (a widely used mouse strain in germ-free experiments) served as recipients for fecal transplants and were housed in sterile isolators (Park Biosciences). For fecal transplantation experiments, 200 mg of stool (from mouse pellets or human swabs) was resuspended in 5 ml of PBS under anaerobic conditions, vortexed for 3 minutes and allowed to settle by gravity for 2 minutes. Recipient mice were gavaged with 200 μl of the supernatant and maintained on standard NC diet and water throughout the experiment.
Mice were fasted for 6 hours during the light phase, with free access to water. In all groups of mice where the drinking regime was other than water, it was substituted for water for the period of the fasting and glucose or insulin tolerance test. Blood from the tail vein was used to measure glucose levels using a glucometer (Bayer) immediately before and 15, 30, 60, 90 and 120 minutes after oral feeding with 40 mg glucose (J.T. Baker) or intra-peritoneal injection with 0.1 Ukg^−1 Insulin (Biological Industries). Plasma fasting insulin levels were measured in sera collected immediately before the start of GTT using ELISA (Ultra Sensitive Mouse Insulin ELISA Kit, Crystal Chem).
pooled fecal matter from naïve adult WT C57Bl/6 male mice was resuspended in 5 ml PBS in an anaerobic chamber (Coy Laboratory Products, 75% N2, 20% CO2, 5% H2), vortexed for 3 minutes and allowed to settle by gravity for 2 minutes. […] were added to a tube containing Chopped Meat Carbohydrate Broth, PR II (BD) and […] of a 5 mgml-1 saccharin solution or an equal volume of PBS. Every 3 days, 500 ml of culture were diluted to fresh medium containing saccharin or PBS. After 9 days, cultures were used for inoculation of germ-free mice.

O=C1NS(=O)(=O)c2ccccc21 [saccharin]
glucose tolerance of germ-free recipients (D7 (post exposure) vs D1 stool from human NAS responders after 7 days commercial saccharin, P<0.004, P<0.02): significant glucose intolerance
glucose tolerance of germ-free recipients (D7 vs D1 stool from two human NAS non-responders): normal glucose tolerance
glucose tolerance of germ-free recipients (donors HFD-consuming mice drinking pure saccharin vs water, p<0.004): replicated the glucose intolerance phenotype
glucose tolerance of germ-free recipients (recipients of in vitro saccharin-treated (5 mgml^−1) fecal culture vs control culture, 6 days, p<0.002): significantly higher glucose intolerance
